One series relates to STAT1 and Erk1/2. In words: Pulse inhibition of SHP-1, STAT1 and Erk1/2 phosphorylation (WB). In kind it is cell-based, murine. The following applies: IFNγ/LPS, immediately after treatment. On the procedure: FIGS. 4A and 4B depict that pulse inhibition of SHP-1 transiently enhances proinflammatory signal transduction in macrophages. FIG. 4A: murine macrophages (bone marrow derived macrophages, or “BMDM”) were treated with TPI-1 for 15 min followed by wash to complete removal of TPI-1. At different time points after the TPI-1 treatment, macrophages were stimulated with IFNγ/LPS in the presence of alive cancer cells (1:1 ratio to BMDM) for 20 min prior to cell lysis and assaying SHP-1 activity using pNpp and WB detecting total and phosphorylated STAT1 and Erk1/2. FIG. 4B: the same setting as in FIG. 4A, except that after TPI-1 treatment, TPI-1 in medium was partially removed (50%) or without removal, followed by macrophage stimulation with IFNγ/LPS at different time points.

The nature of series [1]: Toxicity of pulse-intermittent iSHP-1 in tumor-bearing mice. In kind it is in vivo. The note with it: three cycles of pulse-intermittent iSHP-1 with proinflammatory agents. An excerpt:
FIGS. 10A-10B depicts pulse-intermittent iSHP-1 design and treatment schemes. In preclinical tumor models, we have tested three pulsed treatment schemes, pulses-1, -2 and -3, with iSHP-1 given once, twice or three times consecutively (1× per day) at the beginning of each cycle, and an intermittent period of 2-9 days withholding iSHP-1 treatment between cycles. The combination modalities include, but are not limited to, TLR ligands, STING activator, RT, anti-PD-1/L1 immune checkpoint blockade (αPD-1/L1), inflammatory cytokines, chemotherapies and oncolytic viruses. These combination regimens were given together with SHP-1 inhibitor or following separate dosing schedules. Murine solid tumor models with a single tumor or multi-lesions (metastases) in syngeneic mice of different backgrounds were tested. These models were established by engrafting tumors in multiple locations, and iSHP-1 treatment began when a single tumor reaches ≥200 mm^3 in size or the total tumor burden ≥300 mm^3. […]
Throughout treatments, anti-tumoral efficacies (tumor volume changes and survival rates), adverse effects (body weight loss, proteinuria, anemia and clinical discomfort), gross organ toxicity and tissue inflammation due to toxicity, and the TME immune landscape changes were analyzed at different time points and at the terminal point. […]

The test system of a further series is macrophages. As to the kind of experiment: Macrophage cytokine production under immunosuppressive or proinflammatory stimulation with cancer cell ligation. In kind it is cell-based. An excerpt:
(§1) FIGS. 6A-6D depict that the inhibition of SHP-1 promotes anti-tumor effects or pro-tumor effects under different circumstances. FIG. 6A depicts that intratumoral macrophages upregulate expression of iRs (Pir-B, Siglec E, F and G, and SIRPα) along with tumor progression to late-stage large sizes. KPC pancreatic tumors of small sizes (<150 mm^3) and those grown to larger sizes (>800 mm^3) were dissociated to single cells, followed by flow cytometry analyses for cell surface protein expression on macrophages (gated F4/80+). FIG. 6B depicts that the inhibition of SHP-1 alone promotes TME immunosuppression. Excised MC38 solid tumor cubes were treated with SHP-1 inhibitor TPI-1 (100 nM) or vehicle (DMSO) in a cell culture setting. After 24 h, tumor secreting cytokines into the culture medium were assayed by ELISA.
The SHP-1 activity in non-therapeutic solid tumors is low (see FIGS. 7A-7D), and this low activity inhibits immunosuppressive receptor signaling. […] In parallel experiments, the same SHP-1 inhibitors augmented macrophage responses to the M1 stimuli IFNγ and LPS and enhanced proinflammatory cytokine production.

For another series, the system named is KPC pancreatic tumor. As to the kind of experiment: Cytokines, antigen presentation and chemokines in KPC tumor after treatment. In kind it is in vivo, murine. From the text:
FIGS. 7A-7F depict that the inhibition of SHP-1 unleashes proinflammatory response and antigen presentation in solid tumor upon therapies. […] Low PTP/SHP-1 activity was found in untreated, homeostatic tumor. […] Similar data were obtained by studying colorectal carcinoma MC38.

Another series has as its system MC38 tumor. As to the kind of experiment: Ex vivo treatment of excised MC38 tumor. Further details: species or system murine. The note with it: TPI-1 and αTLR. An excerpt: FIGS. 8A-8E depict that SHP-1 inhibition combined with TLR agonists (αTLR) reprograms TME of MC38 colorectal carcinoma. FIG. 8A depicts MC38 tumor treatment scheme.
Consistent with these changes, TME analyses of MC38 colorectal and KPC pancreatic tumors treated with TLR agonist combined with TPI-1 or RT (FIGS. 8A-8E & 9) found rapid infiltration of inflammatory neutrophils (ROShigh) and tumor-killing NK cells (Granzhigh), and the strong antigen presentation also brought about the expansion of tumor-specific (p15E-reactive) cytotoxic T cells harboring high tumoricidal capacity (Granzhigh). The immunosuppressive compartments in the same TME, including MDSC and Treg, were reduced. […] Ex vivo infusion of TLR agonists and TPI-1 together, but not each individually, into excised tumors induced the similar response of T cell expansion.

The next series has as its system MC38 solid tumor. In words: Cytokine secretion of excised MC38 tumor cubes (ELISA). Further details: species or system murine. The following applies: 100 nM, 24 h.
Excerpt: as §1
A general note: An ELISA detects its analyte on a solid surface through an enzyme-linked reagent.

Series [2] deals with PTP activity in macrophages. As to the kind of experiment: PTP activity in macrophages co-cultured with cancer cells and stimulated with IFNγ/LPS or TLR agonists. In kind it is cell-based. The following applies: induced by IFNγ/LPS or TLR agonists, with cancer cell ligation, 30 min, 37 °C. Further details: concentration or dose not given beside the values. As to the method: FIGS. 3A-3E depict modulation of SHP-1 activity in proinflammatory macrophages in cancer. Macrophages co-cultured with cancer cells were stimulated with IFNγ/LPS or TLR agonists (αTLR) comprising CpG, polycytidylic acid (i.e., PolyI:C) and R848 (each 0.4 μg/ml) for 30 min (37 °C) in the presence or the absence of different SHP-1 or SHP-2 inhibitor or activator, followed by cell lysis and assays of PTP activity. FIG. 3A depicts SHP-1 activity regulation mechanisms. […] FIG. 3E depicts that PKCθ negatively regulates SHP-1 activity at a moderate level.

Where [3] appears, read: with αTLR or RT, single dose TPI-1.
Where [4] appears, read: with αTLR or RT, single dose TPI-1, 6-18 h.

Where only a bound is given, the exact number is not on record here.

As for `O=C1C=CC(=O)C(c2cc(Cl)ccc2Cl)=C1` [TPI-1], the “pSTAT-1 and pErk1/2” value in the series with STAT1 and Erk1/2 is “increased pSTAT-1 and pErk1/2”. The “organ damage, anemia, splenomegaly” value in series [1] is “did not exhibit serious lung or kidney damage, anemia or splenomegaly”. In addition, the “macrophage production of IL-12 and TNFα” value with macrophages (IFNγ and LPS) is “dose-dependently augmented macrophage proinflammatory response with increased IL-12 and TNFα”. Moreover, the “macrophage production of IL-10 and TGFβ” value in the series on macrophages (IL-4/13 or IL-10 stimulation) is listed as “dose-dependently augmented”. Also, the “proinflammatory cytokines in tumor” value with KPC pancreatic tumor (with TLR agonists or RT, single dose TPI-1, 6-18 h post treatment) is “high expression of proinflammatory cytokines”. Further, in the series with KPC pancreatic tumor (setting [3]), the “TGFRs and CCL2 in TME” value is listed as “reduced”; the “chemokines that attract neutrophils, NK and T cells” value is recorded as “increased in the TME”. Further, in the series on KPC pancreatic tumor (setting [4]), the “IL-10 and TGFβ in tumor” value was “abating IL-10 and TGFβ”; the “antigen presentation markers of intratumoral macrophages” value was “elevated cell surface markers MHC-I, MHC-II, and costimulatory molecules CD80, CD86, CD40, OX40L”. For the same compound, the “CD8 T cell expansion in excised tumor” value with MC38 tumor is on record as “induced CD8 T cell expansion”. In addition, in the series with MC38 solid tumor, the “tumor production of IL-6” value was “increased tumor production of IL-6 and IL-10”; the “tumor production of IL-10” value is “increased tumor production of IL-6 and IL-10”. In series [2], the “PTP activity diminished in macrophages” value was greater than 70%.

The record behind these values is US20260325465A1, “SHP-1 INHIBITORS FOR TREATING CANCER” (MDX MANAGEMENT LLC, priority 2022, published 2026).
